Laboratory results as given in US11891634B2, “PDE5A destabilizing domains” (The Board of Trustees of the Leland Stanford Junior …, priority 2017, dated 2024).

Tests used:
Assay type in all cases: cell-based, human
[1] = test system: HCT 116 cells transduced with the PDE5A DD derived GFP constructs; test: Response to Tadalafil, GFP expression by FACS in HCT116; details: for MFI / Stabilization ratio with Tadalafil: 48 hours, HCT116
Experimental: (§1) PDE5AN (#3) was cloned as AcGFP fusion into pELNS vector carrying mCherry marker and packaged in lentiviral vectors. HCT116 cells were transduced with the construct and stable integrants were selected by cell sorting using mCherry marker. Cells were treated with vehicle (dimethyl sulfoxide, DMSO) or varying doses of Tadalafil (TDF) for 48 hrs with doses ranging from 0.01 μM to 100 μM. Following the treatment, cells were analyzed for GFP expression using FACS. Basal expression was calculated as the ratio of GFP signal in the absence of ligand for a given cell line to auto fluorescence of parental HCT-116 cells. Stabilization ratio was calculated as the ratio of the GFP signal observed in the presence of stabilizing ligand to the signal from the same cell line in the absence of ligand.
HCT 116 cells transduced with the PDE5A DD derived GFP constructs were also tested with increasing doses of Tadalafil. The HCT116 cells were incubated for 48 hours with Tadalafil starting at dose 0.01 μM to 100 μM. The GFP intensity of the Tadalafil treated samples was compared to the parental untransduced HCT116 and DMSO treated cells for each construct. The mean fluorescence intensity was calculated for each sample and used to calculate the stabilization ratios as well as the basal expression for each construct. The stabilization ratios are shown in Table 19 and Table 20 and the basal expression is show in Table 21.

[2] = test system: HCT116 cells transduced with the constructs; test: Response to Sildenafil, GFP expression by flow cytometry in HCT116; details: for MFI / Stabilization ratio with Sildenafil: 48 hours, HCT116
Experimental: Similar experiments were performed in HCT116 cells using sildenafil. The above-mentioned DDs were cloned as AcGFP fusion into pELNS vector carrying mCherry marker and packaged in lentiviral vectors. HCT116 cells were transduced with the constructs and stable integrants were selected by cell sorting using mCherry marker. Cells were treated with sildenafil at the following μM concentrations: 0.01, 0.02, 0.05, 0.14, 0.41, 1.23, 3.7, 11.11, 33.33, and 100 for a duration of 48 hours. The fluorescence was analyzed by flow cytometry and the mean fluorescence intensity was calculated for all samples. […] The stabilization ratios are shown in Table 24 and Table 25 and the basal expression is show in Table 26.

[3] = test system: HCT 116 cells transduced with the PDE5A DD derived GFP constructs; test: Response to Vardenafil, GFP expression by FACS in HCT116; details: for MFI / Stabilization ratio with Vardenafil: 48 hours, HCT116
Experimental: as §1, with “Mutations were created in PDE5A (535-860) catalytic domain using site directed mutagenesis and the mutants were” for “PDE5AN (#3) was”, “constructs” for “construct”, “10 μM Vardenafil (VDF)” for “varying doses of Tadalafil (TDF)”, “hours.” for “hrs with doses ranging from 0.01 μM to 100 μM.”
HCT 116 cells transduced with the PDE5A DD derived GFP constructs were also tested with increasing doses of Vardenafil. The HCT116 cells were incubated for 48 hours with Vardenafil starting at a dose of 0.002 μM to 30 μM. The GFP intensity of the Vardenafil treated samples was compared to the parental untransduced HCT116 and DMSO treated cells for each construct. The mean fluorescence intensity was calculated for each sample and used to calculate the stabilization ratios as well as the basal expression for each construct. The GFP expression was measured using flow cytometry and the mean fluorescence intensity (MFI) was calculated for each sample. The stabilization ratios are shown in Table 13 and Table 14 and the basal expression is show in Table 15.

Substance: PDE5AC (#43): AcGFP fused to C-terminal DD 535-860 of PDE5A (Q589R, N609H, Y676N, A762S), SEQ ID NO. 29
- MFI ([1]; DMSO (no Tadalafil)): 10998
- Basal expression ([1]; Table 21, MFI with DMSO / parental HCT116, Tadalafil experiment): 8.59
- Stabilization ratio with Tadalafil ([1]; Tadalafil 0.01 μM vs DMSO): 1.0
- MFI ([1]; Tadalafil 0.01 μM): 11444
- Stabilization ratio with Tadalafil ([1]; Tadalafil 0.02 μM vs DMSO): 1.0
- MFI ([1]; Tadalafil 0.02 μM): 11479
- Stabilization ratio with Tadalafil ([1]; Tadalafil 0.05 μM vs DMSO): 1.1
- MFI ([1]; Tadalafil 0.05 μM): 11764
- Stabilization ratio with Tadalafil ([1]; Tadalafil 0.14 μM vs DMSO): 1.2
- MFI ([1]; Tadalafil 0.14 μM): 13429
- Stabilization ratio with Tadalafil ([1]; Tadalafil 0.41 μM vs DMSO): 1.7
- MFI ([1]; Tadalafil 0.41 μM): 18940
- Stabilization ratio with Tadalafil ([1]; Tadalafil 1.23 μM vs DMSO): 2.9
- MFI ([1]; Tadalafil 1.23 μM): 32204
- Stabilization ratio with Tadalafil ([1]; Tadalafil 3.7 μM vs DMSO): 4.5
- MFI ([1]; Tadalafil 3.7 μM): 49646
- Stabilization ratio with Tadalafil ([1]; Tadalafil 11.11 μM vs DMSO): 5.8
- MFI ([1]; Tadalafil 11.11 μM): 64186
- Stabilization ratio with Tadalafil ([1]; Tadalafil 33.33 μM vs DMSO): 6.8
- MFI ([1]; Tadalafil 33.33 μM): 74446
- Stabilization ratio with Tadalafil ([1]; Tadalafil 100 μM vs DMSO): 6.9
- MFI ([1]; Tadalafil 100 μM): 76281
- MFI ([2]; DMSO (no Sildenafil)): 11147
- Stabilization ratio with Sildenafil ([2]; Sildenafil 0.01 μM vs DMSO): 1.1
- MFI ([2]; Sildenafil 0.01 μM): 11962
- Stabilization ratio with Sildenafil ([2]; Sildenafil 0.02 μM vs DMSO): 1.1
- MFI ([2]; Sildenafil 0.02 μM): 11940
- Stabilization ratio with Sildenafil ([2]; Sildenafil 0.05 μM vs DMSO): 1.4
- MFI ([2]; Sildenafil 0.05 μM): 15203
- MFI ([2]; Sildenafil 0.14 μM): 24319
- Stabilization ratio with Sildenafil ([2]; Sildenafil 0.41 μM vs DMSO): 3.6
- MFI ([2]; Sildenafil 0.41 μM): 40470
- Stabilization ratio with Sildenafil ([2]; Sildenafil 1.23 μM vs DMSO): 5.2
- MFI ([2]; Sildenafil 1.23 μM): 57723
- Stabilization ratio with Sildenafil ([2]; Sildenafil 3.70 μM vs DMSO): 6.6
- MFI ([2]; Sildenafil 3.70 μM): 73400
- Stabilization ratio with Sildenafil ([2]; Sildenafil 11.11 μM vs DMSO): 6.9
- MFI ([2]; Sildenafil 11.11 μM): 76900
- Stabilization ratio with Sildenafil ([2]; Sildenafil 33.33 μM vs DMSO): 8.5
- MFI ([2]; Sildenafil 33.33 μM): 94863
- Stabilization ratio with Sildenafil ([2]; Sildenafil 100.00 μM vs DMSO): 5.1
- MFI ([2]; Sildenafil 100.00 μM): 56552
- Basal expression ([2]; Table 26, MFI with DMSO / parental HCT116, Sildenafil experiment): 8.7
- MFI ([3]; DMSO (no Vardenafil)): 12047
- Basal (DMSO/Parental) ([3]; Table 10, GFP signal without ligand / auto fluorescence of parental HCT-116): 8.7
- Basal ([3]; Table 15, MFI with DMSO / parental HCT116, Vardenafil experiment): 6.17
- Stabilization ratio with Vardenafil ([3]; Vardenafil 0.002 μM vs DMSO): 1.1
- MFI ([3]; Vardenafil 0.002 μM): 13329
- MFI ([3]; Vardenafil 0.005 μM): 17702
- Stabilization ratio with Vardenafil ([3]; Vardenafil 0.014 μM vs DMSO): 2.8
- MFI ([3]; Vardenafil 0.014 μM): 33483
- Stabilization ratio with Vardenafil ([3]; Vardenafil 0.041 μM vs DMSO): 4.6
- MFI ([3]; Vardenafil 0.041 μM): 55300
- Stabilization ratio with Vardenafil ([3]; Vardenafil 0.123 μM vs DMSO): 5.8
- MFI ([3]; Vardenafil 0.123 μM): 70385
- Stabilization ratio with Vardenafil ([3]; Vardenafil 0.370 μM vs DMSO): 6.5
- MFI ([3]; Vardenafil 0.370 μM): 78215
- Stabilization ratio with Vardenafil ([3]; Vardenafil 1.111 μM vs DMSO): 6.9
- MFI ([3]; Vardenafil 1.111 μM): 83052
- Stabilization ratio with Vardenafil ([3]; Vardenafil 3.333 μM vs DMSO): 7.4
- MFI ([3]; Vardenafil 3.333 μM): 88707
- Stabilization ratio with Vardenafil ([3]; Vardenafil 10 μM vs DMSO): 7.1
- MFI ([3]; Vardenafil 10 μM): 85867
- Stabilization ratio with Vardenafil ([3]; Vardenafil 30 μM vs DMSO): 7.2
- MFI ([3]; Vardenafil 30 μM): 86318
